Results from US11504385B2, “Proteolysis targeting chimeric molecule, preparation method, and application” (CHINA PHARMACEUTICAL UNIVERSITY, priority 2019, dated 2022).

Legend:
[1] = biological target: T1, BCR-ABL fusion protein (Homo sapiens, UniProt P00519+P11274+Q96SW2, E27K); test: Immunoblotting, degradation of BCR-ABL protein in K562 cells; format: cell-based
T1 construct: By using BCR-ABL and CRBN positive K562 cell lines; endogenous in cells; host or cells: K562
Procedure: Initially, researchers synthesized a 2C compound (FIG. 2A), which is a small molecule with the shortest joining chain (n=1). By using BCR-ABL and CRBN positive K562 cell lines, degradation of ABL and BCR-ABL proteins in the cells under the action of the compound was tested by immunoblotting. […] Then, the researchers tried to extend the joining chain (increasing the value of n).
(§1) In order to test the degradation effect of the compound 4C on c-ABL and BCR-ABL proteins in K562 cells, the researchers performed an immunoblotting experiment. […] In order to exclude the possibility that the compound 4C affected the ABL gene to generate false positive expression, the researchers used RT-qPCR in K562 cells to study the expression of the ABL gene.
The operation method of the immunoblotting experiment is as follows: […]
The medium was aspirated from the culture; the cells were washed with 1*PBS; and the cells were aspirated.
A weak RIPA lysate (100 μL) was added to lyse the cells for 40 min.
The sample was centrifuged at 13000 rpm, 4° C. for 15 min; 80 μl of supernatant was taken and added to 20 μl of loading buffer; the reaction solution was heated at 100° C. for 8 minutes; and the sample was placed on ice and cooled.
[…] of sample was loaded on 10% SDS-PAGE gel. The sample was transferred to a PVDF membrane by a wet process.
A membrane was placed in 25 ml of blocking buffer and blocked at room temperature for 1 hour.
The membrane and the primary antibody (according to the appropriate dilution and diluent recommended in the product description) were placed in 10 ml of primary antibody dilution buffer, and incubated overnight at 4° C. and gently shaken from time to time.
Anti-rabbit IgG, HRP-linked Antibody (#7074, in a ratio of 1:2000) and anti-biotin, HRP-linked Antibody (#7075, in a ratio of 1:1000-1:3000) are diluted with 10 ml of blocking buffer to detect biotinylated protein standards. The membrane was incubated with the diluent, and gently shaken and incubated at room temperature for 1 hour.
A developer solution and the membrane were incubated together for 1 minute, the excess solution was discarded (the membrane remained moist) and the membrane was exposed.
Next, we tested the difference in the activity of different configurations of compound 4C in degradation of ABL and BCR-ABL proteins. […] The operation method of the immunoblotting experiment is the same as above.

[2] = Photo-isomerization by UV-Vis absorption spectrum; format: physicochemical
Procedure: Then, we explored the photodynamic characteristics of the compound 4C through UV-Vis absorption spectrum. […] In addition, since the compound 4C is a T-type optical switch, the cis configuration underwent self-heating relaxation under dark conditions to transform into the trans configuration, and T½ was about 10 hours at 25° C.

[3] = tested on: HCT116; test: Cell viability test (CellTiter-Glo), HCT116; format: cell-based; conditions: HCT116, non-BCR-ABL dependent tumor cell line
Procedure: The operation method of the K562 cell viability test is as follows:
50 μL of K562, MCF-7, HCT116 and A549 cell suspensions were added to a 96-well plate and incubated for 12 hours. 10 μL of compound was added to the well and incubated for 48 hours. Operation was performed according to a CellTiter-Glo® luminescent cell viability assay kit (Promega). Nonlinear regression analysis data in GraphPad Prism 6 was used.

[4] = tested on: ABL gene; test: RT-qPCR, expression of the ABL gene in K562 cells; format: cell-based
Source text: as §1
The operation method of an RT-qPCR experiment is as follows:
According to the related gene information in the NCBI database, the coding sequences were selected, and primers were designed and synthesized by GenScript Biotechnology Corporation under entrustment. The sequences are as follows:
A K562 cell resuspension solution collected in a 1.5 mL centrifuge tube was centrifuged briefly. […] After mixing uniformly, the purity and concentration of the extracted RNA sample were detected using a spectrophotometer. […]
0.2 ml thin-walled PCR tubes were taken and numbered respectively. […] Water was added to each tube to 25 μl and mixed uniformly, and the mixed solutions were placed in an SLAN fluorescent quantitative PCR instrument. After pre-denaturation at 95° C. for 5 min, the mixed solutions were placed at 95° C. for 15 s→65° C. for 35 s (fluorescence detection), for 40 cycles.

inhibition of expression of BCR-ABL and/or CRBN protein ([1]; BCR-ABL and/or CRBN positive leukemia K562 cells, to varying degrees): can inhibit the expression | activity in degrading the BCR-ABL fusion protein, compared among the PROTAC molecules ([1]; K562 cells): best activity | degradation of BCR-ABL fusion protein, dose-effect ([1]; K562 cells, 25 nM, 24 hours of incubation): slightly degrade | time at which BCR-ABL reached the maximum degradation ([1]; K562 cells, 250 nM): 32 h | BCR-ABL level, time-effect ([1]; K562 cells, 250 nM, after 4 hours): slight decrease | BCR-ABL level, time-effect ([1]; K562 cells, 250 nM, after 10 hours): significantly degraded | BCR-ABL level, time-effect ([1]; K562 cells, 250 nM, after 10 hours, listed as 4C-trans): significantly reduced | BCR-ABL fusion protein degraded, time-effect ([1]; K562 cells, 250 nM, after 32 hours): more than 90% | BCR-ABL degraded, dose-effect ([1]; K562 cells, 500 nM, 24 hours of incubation): more than 80% | reversibility of the photosensitive switch (stability) ([2]; irradiated with ultraviolet light and white light in turn for 5 times): still relatively stable
SMILES: Cc1nc(Nc2ncc(C(=O)Nc3c(C)cccc3Cl)s2)cc(N2CCN(CCCCOc3ccc(/N=N/c4ccc(C(=O)Nc5cccc6c5CN(C5CCC(=O)NC5=O)C6=O)cc4)cc3)CC2)n1 (centres unmarked) [Compound 4C, (E)-N-(2-chloro-6-methylphenyl)-2-((6-(4-(4-(4-((4-((2-(2,6-dioxopiperidin-3-yl)-1-oxoisoindolin-4-yl)carbamoyl)phenyl)diazenyl)phenoxy)butyl)piperazin-1-yl)-2-methylpyrimidin-4-yl)amino)thiazole-5-carboxamide]
transformation from trans to cis configuration (absorbency-time curve at 361 nm) ([2]; UV irradiation for 1 hour): almost completely transformed to the cis configuration | effect on cell viability [3]: hardly affects | mRNA level of the ABL gene, time-effect ([4]; 500 nm, 48 hours): did not significantly decrease | mRNA level of the ABL gene, dose-effect ([4]; different concentrations, 36 hours, compared with control group): did not change significantly
